Measured values taken from PubChem BioAssay (NCI).
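Values below derive from 48-hour exposures of cells grown in 96-well plates, with endpoints linearly interpolated between the two concentrations bracketing the appropriate inhibition level. GI50 = concentration required for 50% inhibition of growth. TGI: concentration producing complete growth inhibition.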

Tests used:
Assay in all cases: NCI-60 cell line screen, 48 h
OVCAR-5 ovarian = system: OVCAR-5 ovarian
HOP-92 NSCLC = system: HOP-92 NSCLC
UACC-257 melanoma = system: UACC-257 melanoma
HL-60(TB) leukemia = system: HL-60(TB) leukemia
HCT-15 colon = system: HCT-15 colon
HT29 colon = system: HT29 colon
SF-295 CNS = system: SF-295 CNS
IGROV1 ovarian = system: IGROV1 ovarian
NCI-H226 lung = system: NCI-H226 lung
NCI-H23 lung = system: NCI-H23 lung

| SMILES | TGI (OVCAR-5 ovarian) | TGI (HOP-92 NSCLC) | TGI (UACC-257 melanoma) | TGI (HL-60(TB) leukemia) | TGI (HCT-15 colon) | TGI (HT29 colon) | TGI (SF-295 CNS) | TGI (IGROV1 ovarian) | TGI (NCI-H226 lung) | TGI (NCI-H23 lung) | GI50 (OVCAR-5 ovarian) | GI50 (HOP-92 NSCLC) | GI50 (UACC-257 melanoma) | GI50 (HL-60(TB) leukemia) | GI50 (HCT-15 colon) | GI50 (HT29 colon) | GI50 (SF-295 CNS) | GI50 (IGROV1 ovarian) | GI50 (NCI-H226 lung) | GI50 (NCI-H23 lung) |
| --- | --- | --- | --- | --- | --- | --- | --- | --- | --- | --- | --- | --- | --- | --- | --- | --- | --- | --- | --- | --- |
| Cc1ccc2nc(-c3ccc(NC(=O)c4ccc(N)cc4)c(S(=O)(=O)O)c3)sc2c1 | > 100 µM | > 100 µM | > 100 µM | > 100 µM | > 100 µM | > 100 µM | > 100 µM | > 100 µM | > 100 µM | > 100 µM | – | – | – | – | – | – | – | – | – | – |
| CC1=CC(O)C(C(O)(C(F)(F)F)C(F)(F)F)C(C)(C)C1 (configuration not stated) | > 10 µM | > 10 µM | > 10 µM | > 10 µM | > 10 µM | > 10 µM | > 10 µM | 0.986 µM | > 10 µM | > 10 µM | – | – | – | – | – | – | – | – | – | – |
| OCCCSCCO | > 100 µM | > 100 µM | > 100 µM | > 100 µM | > 100 µM | > 100 µM | > 100 µM | > 100 µM | > 100 µM | > 100 µM | – | – | – | – | – | – | – | – | – | – |
| Nc1cc(S(=O)(=O)O)cc2ccc(S(=O)(=O)O)cc12 | > 100 µM | > 100 µM | > 100 µM | > 100 µM | > 100 µM | > 100 µM | > 100 µM | > 100 µM | – | > 100 µM | – | – | – | – | – | – | – | – | – | – |
| Nc1nnc(CCC(=O)Nc2cc(Cl)ccc2Cl)n1N | > 100 µM | > 100 µM | > 100 µM | > 100 µM | > 100 µM | > 100 µM | > 100 µM | > 100 µM | > 100 µM | > 100 µM | – | – | – | – | – | – | – | – | – | – |
| CS(C)(=O)=Nn1c(=O)n2n(c1=O)C1c3ccccc3C2c2ccccc21 | > 100 µM | > 100 µM | > 100 µM | > 100 µM | > 100 µM | > 100 µM | > 100 µM | > 100 µM | – | > 100 µM | – | – | – | – | – | – | – | – | – | – |
| Cc1n[n+]([O-])c(C)cc1[N+](=O)[O-] | 36.8 µM | 34.3 µM | 29 µM | – | 29.3 µM | 27 µM | – | 49 µM | 60 µM | 29.9 µM | – | – | – | – | – | – | – | – | – | – |
| CC1C(=O)c2cc3c(cc2CCN(C)Cc2c1ccc1c2OCO1)OCO3 (configuration not stated) | > 75 µg/mL | > 75 µg/mL | > 75 µg/mL | > 75 µg/mL | > 75 µg/mL | > 75 µg/mL | > 75 µg/mL | > 75 µg/mL | > 75 µg/mL | > 75 µg/mL | > 75 µg/mL | > 75 µg/mL | 36.1 µg/mL | 21.2 µg/mL | > 75 µg/mL | 19.6 µg/mL | > 75 µg/mL | > 75 µg/mL | > 75 µg/mL | > 75 µg/mL |
| COc1cccc(/C=N/[N-]C(N)=O)c1[O-].[Ni+2].[OH3+] | 2.55 µM | 0.934 µM | 1.52 µM | 0.86 µM | 1.17 µM | 2.07 µM | 2.36 µM | 0.811 µM | 2.11 µM | 0.735 µM | – | – | – | 0.111 µM | – | – | – | – | – | – |
| CCOC(=O)c1c(-c2cccc(Cl)c2)c(C(=O)OC)c(C)c2sc(C=O)nc12 | 35.7 µM | 34.2 µM | > 100 µM | 44.9 µM | 36.9 µM | 49.5 µM | 32.5 µM | 32.9 µM | 44.2 µM | > 100 µM | – | – | – | – | – | – | – | – | – | – |
| N#Cc1ccccc1C#C/C=C\C#Cc1ccccc1N | > 62.6 µM | > 78.2 µM | > 22.8 µM | > 100 µM | – | > 100 µM | 5.01 µM | – | > 38.5 µM | 29.2 µM | 5 µM | 2450 nM | – | 4.22 µM | 3.85 µM | 4.38 µM | 1.28 µM | – | 6.6 µM | 2.88 µM |
| COc1cc(C2c3cc4c(cc3[C@@H](Nc3ccc(Oc5ccccc5)cc3)C3COC(=O)[C@H]23)OCO4)cc(OC)c1O (some centres not stated) | > 100 µM | – | 20.1 µM | 2.23 µM | 19.7 µM | > 100 µM | > 100 µM | > 100 µM | 7.9 µM | 6.68 µM | – | – | – | – | – | – | – | – | – | – |
| Clc1ccc(Nc2nc(Nc3ccccc3)nc(Nc3ccc(-c4cc(-c5ccc(Cl)cc5)on4)cc3)n2)cc1 | 89.1 µM | 20 µM | > 100 µM | > 100 µM | 84.8 µM | 25.5 µM | 77.6 µM | > 100 µM | > 100 µM | 60.4 µM | 20.9 µM | 1930 nM | 29.8 µM | 51.5 µM | 14.1 µM | 10.8 µM | 12.6 µM | 12.7 µM | 38.8 µM | 18.4 µM |
| Cc1oc(N)c(S(=O)(=O)c2cc3ccccc3n(O)c2=N)c1C | > 100 µM | > 100 µM | > 100 µM | – | > 100 µM | > 100 µM | > 100 µM | > 100 µM | > 100 µM | > 100 µM | – | – | – | – | – | – | – | – | – | – |
| CC(=O)Nc1ccc(C(=O)NN2C(=O)C(Cl)C2c2cccc([N+](=O)[O-])c2)cc1 (configuration not stated) | > 100 µM | > 100 µM | > 100 µM | > 100 µM | – | > 100 µM | > 100 µM | > 100 µM | > 100 µM | > 100 µM | – | – | – | – | – | – | – | – | – | – |
| CC1=C[C@@H](C)C[C@]2(C)CC[C@H](O2)[C@]23CC[C@](CO)(C[C@H](O2)[C@@H]2O[C@@](C)(CC2=O)[C@@H](O)[C@H]2CC[C@@]4(CCC[C@@H](O4)[C@H](C)C(=O)O[C@H]4C[C@H]([C@]5(O)OCC[C@H](C)[C@@H]5O)O[C@H]4C=C1)O2)O3 | > 10 µM | 0.00697 µM | – | 9.73 µM | > 10 µM | > 10 µM | > 10 µM | 0.0561 µM | – | – | – | – | – | – | – | – | – | – | – | – |
| CCOCC(=O)N(C)c1cccc2c3c(n(C)c12)CCCCC3 | > 100 µM | > 100 µM | > 100 µM | > 100 µM | > 100 µM | > 100 µM | > 100 µM | > 100 µM | > 100 µM | > 100 µM | – | – | – | – | – | – | – | – | – | – |
